This is an account of results in PMC4279406, “Simultaneous targeting of PI3Kδ and a PI3Kδ-dependent MEK1/2-Erk1/2 pathway for therapy in pediatric B-cell acute lymphoblastic leukemia” (Oncotarget, 2014).

The test system of one assay is Raji MEK DD cells. Description: Proliferation of Raji MEK DD cells (CCK-8). It is filed as cell-based, human. The note with it: 72 h, CCK-8, compared with Raji. On the procedure: Figure 5 Inhibition of Erk1/2 phosphorylation by X-370 contributed to its antiproliferative activity (A-C) X-370 inhibited Erk1/2 phosphorylation via PI3K-PDK1-MEK1/2 cascade but not the PI3K-Gab1 positive feedback loop. (A) Raji and SU-DHL-6 cells were exposed to 1 μM X370 for 3 h and protein fraction from cellular membrane was separated using Native Membrane Protein Extraction Kit and probed. WCL: whole cell lysate. (B) Inhibition of PDK1 or MEK1/2 abrogated Erk1/2 phosphorylation. Cells were treated with pharmacological inhibitors of Raf (AZ 628, PLX4032), MEK1/2 (AZD6244), p90RSK (BI-D1870), PI3Kδ (X-370), PDK1 (BX-912), Akt (MK-2206), mTOR (AZD8055) or mTORC1 (Rapamycin) respectively and indicated proteins were detected. […] Raji cells were treated with 1 μM X370 for 1 h and cell lysates were immunoprecipitated with anti-PDK1 antibody and indicated proteins were detected. […] (E) Raji and Raji MEK DD cells were treated with X-370 for 72 h and cell proliferation was detected by CCK-8 assay. (F) Raji MEK DD cells were treated with X-370 and AZD6244 and cell proliferation was detected by CCK-8 assay. Data were show as mean ± SD of three independent experiments. *: p < 0.05 determined by t-tests at each data point. […]
luciferase. Raji cells expressing MEK DD or luciferase were incubated with 1 μM AZD6244 or DMSO control respectively for 72 h, and then cell viability were assessed by CCK-8 reagent. […]

Assay [1] relates to PDK1 and MEK1/2 association in Raji cells. Description: PDK1 immunoprecipitation, association with MEK1/2. The note with it: 1 μM, 1 h, anti-PDK1 immunoprecipitation. It counts as cell-based, human. As for the experimental part:
Figure 5 Inhibition of Erk1/2 phosphorylation by X-370 contributed to its antiproliferative activity (A-C) X-370 inhibited Erk1/2 phosphorylation via PI3K-PDK1-MEK1/2 cascade but not the PI3K-Gab1 positive feedback loop. (A) Raji and SU-DHL-6 cells were exposed to 1 μM X370 for 3 h and protein fraction from cellular membrane was separated using Native Membrane Protein Extraction Kit and probed. WCL: whole cell lysate. (B) Inhibition of PDK1 or MEK1/2 abrogated Erk1/2 phosphorylation. Cells were treated with pharmacological inhibitors of Raf (AZ 628, PLX4032), MEK1/2 (AZD6244), p90RSK (BI-D1870), PI3Kδ (X-370), PDK1 (BX-912), Akt (MK-2206), mTOR (AZD8055) or mTORC1 (Rapamycin) respectively and indicated proteins were detected. (C) X-370 disrupted the association between PDK1 and MEK1/2. Raji cells were treated with 1 μM X370 for 1 h and cell lysates were immunoprecipitated with anti-PDK1 antibody and indicated proteins were detected. WCL: whole cell lysate. […] (E) Raji and Raji MEK DD cells were treated with X-370 for 72 h and cell proliferation was detected by CCK-8 assay. (F) Raji MEK DD cells were treated with X-370 and AZD6244 and cell proliferation was detected by CCK-8 assay. Data were show as mean ± SD of three independent experiments. *: p < 0.05 determined by t-tests at each data point. […]

As for `O=C(N1CCCC1)N1CCC(n2cnc3c(-n4c(C(F)F)nc5ccccc54)nc(N4CCOCC4)nc32)CC1` [X-370], the “effect of MEK DD expression on inhibition of viability” value in the assay with Raji MEK DD cells is reported as “attenuated inhibition of viability”. Also, the “association between PDK1 and MEK1/2” value in assay [1] is “dissociation of MEK1/2 and PDK1”.
